Assay results as given in ChEMBL document CHEMBL4813981, “Synthesis and in vitro antibacterial activity of new aminothiazole-oximepiperidone cephalosporins” (2021).
≈ marks a conversion by molar mass, not a printed value.

How the values were obtained:
Escherichia coli [1] = experiment: Antibacterial activity against ESBLs positive Carbapenem-sensitive Escherichia coli 17-11 assessed as reduction in bacterial growth in the presence of Avibactam; type: functional
Escherichia coli [2] = experiment: Bactericidal activity against ESBLs positive carbapenem-sensitive Escherichia coli 17-3 assessed as reduction in bacterial growth in the presence of avibactam; type: functional
Pseudomonas aeruginosa [3] = experiment: Antibacterial activity against Carbapenem- sensitive Pseudomonas aeruginosa 17-30 assessed as reduction in bacterial growth; type: functional
Klebsiella pneumoniae [4] = experiment: Bactericidal activity against Carbapenem- resistant Klebsiella pneumoniae KR 15-7 assessed as reduction in bacterial growth; type: functional
Klebsiella pneumoniae [5] = experiment: Bactericidal activity against Carbapenem- resistant Klebsiella pneumoniae KR 15-7 assessed as reduction in bacterial growth in the presence of avibactam; type: functional
Pseudomonas aeruginosa [6] = experiment: Bactericidal activity against Pseudomonas aeruginosa ATCC 27853 assessed as reduction in bacterial growth in the presence of avibactam; type: functional
Pseudomonas aeruginosa [7] = experiment: Bactericidal activity against Carbapenem- resistant Pseudomonas aeruginosa 17-5 assessed as reduction in bacterial growth in the presence of avibactam; type: functional
Klebsiella pneumoniae [8] = experiment: Antibacterial activity against ESBLs positive Carbapenem-sensitive Klebsiella pneumoniae 17-14 assessed as reduction in bacterial growth in the presence of Avibactam; type: functional
Escherichia coli [9] = experiment: Antibacterial activity against ESBLs negative Carbapenem-sensitive Escherichia coli 17-4 assessed as reduction in bacterial growth; type: functional
Klebsiella pneumoniae [10] = experiment: Antibacterial activity against Carbapenem- resistant Klebsiella pneumoniae KR 15-10 assessed as reduction in bacterial growth in the presence of Avibactam; type: functional
Enterobacter cloacae [11] = experiment: Bactericidal activity against Enterobacter cloacae 17-2 assessed as reduction in bacterial growth in the presence of avibactam; type: functional
Enterobacter cloacae [12] = experiment: Antibacterial activity against Enterobacter cloacae 17-2 assessed as reduction in bacterial growth in the presence of Avibactam; type: functional
Escherichia coli [13] = experiment: Bactericidal activity against ESBLs negative carbapenem-sensitive Escherichia coli 17-9 assessed as reduction in bacterial growth in the presence of avibactam; type: functional
Acinetobacter baumannii [14] = experiment: Bactericidal activity against Acinetobacter baumannii NCTC 13304 assessed as reduction in bacterial growth; type: functional
Escherichia coli [15] = experiment: Antibacterial activity against ESBLs positive Carbapenem-sensitive Escherichia coli 17-15 assessed as reduction in bacterial growth in the presence of Avibactam; type: functional
Klebsiella pneumoniae [16] = experiment: Antibacterial activity against Carbapenem- resistant Klebsiella pneumoniae KR 15-9 assessed as reduction in bacterial growth in the presence of Avibactam; type: functional
Enterobacter cloacae [17] = experiment: Bactericidal activity against Enterobacter cloacae 17-9 assessed as reduction in bacterial growth in the presence of avibactam; type: functional
Klebsiella pneumoniae [18] = experiment: Antibacterial activity against ESBLs positive Carbapenem-sensitive Klebsiella pneumoniae 17-7 assessed as reduction in bacterial growth in the presence of Avibactam; type: functional
Acinetobacter baumannii [19] = experiment: Antibacterial activity against Carbapenem- resistant Acinetobacter baumannii 17-5 assessed as reduction in bacterial growth
Acinetobacter baumannii [20] = experiment: Antibacterial activity against Multidrug resistant Acinetobacter baumannii AR 15-4 assessed as reduction in bacterial growth; type: functional
Escherichia coli [21] = experiment: Antibacterial activity against Escherichia coli ATCC 35218 assessed as reduction in bacterial growth; type: functional
Escherichia coli [22] = experiment: Antibacterial activity against Escherichia coli 15-4 overexpressing extended spectrum beta-lactamases assessed as reduction in bacterial growth; type: functional
Acinetobacter baumannii [23] = experiment: Antibacterial activity against Multidrug resistant Acinetobacter baumannii AR 15-2 assessed as reduction in bacterial growth in the presence of Avibactam; type: functional
Enterococcus faecalis [24] = experiment: Antibacterial activity against Enterococcus faecalis ATCC 51299 assessed as reduction in bacterial growth in the presence of Avibactam; type: functional
Klebsiella pneumoniae [25] = experiment: Antibacterial activity against ESBLs positive Carbapenem-sensitive Klebsiella pneumoniae 17-3 assessed as reduction in bacterial growth in the presence of Avibactam; type: functional
Escherichia coli [26] = experiment: Bactericidal activity against Escherichia coli NCTC 13353 assessed as reduction in bacterial growth; type: functional
Pseudomonas aeruginosa [27] = experiment: Antibacterial activity against Carbapenem- resistant Pseudomonas aeruginosa 17-5 assessed as reduction in bacterial growth in the presence of Avibactam; type: functional
Acinetobacter baumannii [28] = experiment: Antibacterial activity against Carbapenem- resistant Acinetobacter baumannii 17-2 assessed as reduction in bacterial growth in the presence of Avibactam; type: functional
Escherichia coli [29] = experiment: Bactericidal activity against Escherichia coli NCTC 13353 assessed as reduction in bacterial growth in the presence of avibactam; type: functional
Klebsiella pneumoniae [30] = experiment: Antibacterial activity against ESBLs positive Carbapenem-sensitive Klebsiella pneumoniae 17-12 assessed as reduction in bacterial growth
Escherichia coli [31] = experiment: Antibacterial activity against Escherichia coli NCTC 13353 assessed as reduction in bacterial growth in the presence of Avibactam; type: functional
Klebsiella pneumoniae [32] = experiment: Antibacterial activity against Klebsiella pneumoniae ATCC 700603 assessed as reduction in bacterial growth in the presence of Avibactam; type: functional
Klebsiella aerogenes [33] = experiment: Antibacterial activity against Enterobacter aerogenes 15-4 assessed as reduction in bacterial growth; type: functional
Klebsiella aerogenes [34] = experiment: Antibacterial activity against Enterobacter aerogenes 15-3 assessed as reduction in bacterial growth in the presence of Avibactam; type: functional
Klebsiella aerogenes [35] = experiment: Antibacterial activity against Enterobacter aerogenes 17-1 assessed as reduction in bacterial growth in the presence of Avibactam; type: functional
Escherichia coli [36] = experiment: Antibacterial activity against ESBLs positive Carbapenem-sensitive Escherichia coli 17-18 assessed as reduction in bacterial growth in the presence of Avibactam; type: functional
Enterobacter cloacae [37] = experiment: Antibacterial activity against Enterobacter cloacae 17-6 assessed as reduction in bacterial growth; type: functional
Acinetobacter baumannii [38] = experiment: Bactericidal activity against Carbapenem- resistant Acinetobacter baumannii 17-2 assessed as reduction in bacterial growth in the presence of avibactam; type: functional
Pseudomonas aeruginosa [39] = experiment: Antibacterial activity against Carbapenem- sensitive Pseudomonas aeruginosa 17-11 assessed as reduction in bacterial growth; type: functional
Escherichia coli [40] = experiment: Antibacterial activity against ESBLs positive Carbapenem-sensitive Escherichia coli 17-22 assessed as reduction in bacterial growth in the presence of Avibactam; type: functional
Pseudomonas aeruginosa [41] = experiment: Bactericidal activity against carbapenem-sensitive Pseudomonas aeruginosa 17-29 assessed as reduction in bacterial growth in the presence of avibactam; type: functional
Escherichia coli [42] = experiment: Bactericidal activity against ESBLs negative Carbapenem--sensitive Escherichia coli 17-9 assessed as reduction in bacterial growth; type: functional
Acinetobacter baumannii [43] = experiment: Bactericidal activity against Carbapenem- resistant Acinetobacter baumannii 17-5 assessed as reduction in bacterial growth in the presence of avibactam; type: functional
Klebsiella aerogenes [44] = experiment: Bactericidal activity against Enterobacter aerogenes 17-3 assessed as reduction in bacterial growth in the presence of avibactam; type: functional
Klebsiella pneumoniae [45] = experiment: Antibacterial activity against Klebsiella pneumoniae ATCC BAA-1705 assessed as reduction in bacterial growth in the presence of Avibactam; type: functional
Klebsiella pneumoniae [46] = experiment: Antibacterial activity against Multidrug resistant Klebsiella pneumoniae KR 15-3 assessed as reduction in bacterial growth; type: functional
Klebsiella pneumoniae [47] = experiment: Antibacterial activity against ESBLs positive Carbapenem-sensitive Klebsiella pneumoniae 17-15 assessed as reduction in bacterial growth in the presence of Avibactam; type: functional
Enterococcus faecalis [48] = experiment: Antibacterial activity against Enterococcus faecalis ATCC 51299 assessed as reduction in bacterial growth; type: functional

Nc1nc(/C(=N/OCc2cc(=O)c(O)cn2O)C(=O)N[C@@H]2C(=O)N3C(C(=O)O)=CCS[C@H]23)cs1 gave an MIC (Escherichia coli [1]) of 4 µg/mL, an MBC (Escherichia coli [2]) of 0.25 µg/mL and an MIC (Pseudomonas aeruginosa [3]) of 1 µg/mL (≈ 1.97 µM). The MBC (Klebsiella pneumoniae [4]) was > 64 µg/mL, the MBC (Klebsiella pneumoniae [5]) was 2 µg/mL and the MBC (Pseudomonas aeruginosa [6]) was 4 µg/mL. For the same compound, the MBC (Pseudomonas aeruginosa [7]) was 32 µg/mL, the MIC (Klebsiella pneumoniae [8]) was 0.5 µg/mL and the MIC (Escherichia coli [9]) was 0.25 µg/mL (≈ 0.492 µM). For the same compound, the MIC (Klebsiella pneumoniae [10]) was 1 µg/mL, the MBC (Enterobacter cloacae [11]) was 8 µg/mL and the MIC (Enterobacter cloacae [12]) was 1 µg/mL. For the same compound, the MBC (Escherichia coli [13]) was 2 µg/mL, the MBC (Acinetobacter baumannii [14]) was > 64 µg/mL and the MIC (Escherichia coli [15]) was 0.25 µg/mL. The MIC (Klebsiella pneumoniae [16]) was 2 µg/mL, the MBC (Enterobacter cloacae [17]) was 2 µg/mL and the MIC (Klebsiella pneumoniae [18]) was 2 µg/mL. The MIC (Acinetobacter baumannii [19]) was > 64 µg/mL, the MIC (Acinetobacter baumannii [20]) was > 64 µg/mL and the MIC (Escherichia coli [21]) was 0.5 µg/mL (≈ 0.983 µM). The MIC (Escherichia coli [22]) was > 64 µg/mL, the MIC (Acinetobacter baumannii [23]) was 16 µg/mL and the MIC (Enterococcus faecalis [24]) was > 64 µg/mL. The MIC (Klebsiella pneumoniae [25]) was 4 µg/mL, the MBC (Escherichia coli [26]) was > 64 µg/mL and the MIC (Pseudomonas aeruginosa [27]) was 32 µg/mL. The MIC (Acinetobacter baumannii [28]) was 16 µg/mL, the MBC (Escherichia coli [29]) was 0.5 µg/mL and the MIC (Klebsiella pneumoniae [30]) was 2 µg/mL (≈ 3.93 µM). It also gave an MIC (Escherichia coli [31]) of 0.5 µg/mL, an MIC (Klebsiella pneumoniae [32]) of 64 µg/mL and an MIC (Klebsiella aerogenes [33]) of 4 µg/mL (≈ 7.87 µM). For the same compound, the MIC (Klebsiella aerogenes [34]) was 16 µg/mL, the MIC (Klebsiella aerogenes [35]) was 2 µg/mL and the MIC (Escherichia coli [36]) was 0.5 µg/mL. It also gave an MIC (Enterobacter cloacae [37]) of 2 µg/mL (≈ 3.93 µM), an MBC (Acinetobacter baumannii [38]) of 16 µg/mL and an MIC (Pseudomonas aeruginosa [39]) of 8 µg/mL (≈ 15.7 µM). For the same compound, the MIC (Escherichia coli [40]) was 0.5 µg/mL, the MBC (Pseudomonas aeruginosa [41]) was 8 µg/mL and the MBC (Escherichia coli [42]) was 2 µg/mL (≈ 3.93 µM). The MBC (Acinetobacter baumannii [43]) was 16 µg/mL, the MBC (Klebsiella aerogenes [44]) was 0.5 µg/mL and the MIC (Klebsiella pneumoniae [45]) was 2 µg/mL. For the same compound, the MIC (Klebsiella pneumoniae [46]) was > 64 µg/mL, the MIC (Klebsiella pneumoniae [47]) was 0.125 µg/mL and the MIC (Enterococcus faecalis [48]) was > 64 µg/mL.
CC(C)(O/N=C(\C(=O)N[C@@H]1C(=O)N2C(C(=O)[O-])=C(C[n+]3ccccc3)CS[C@H]12)c1csc(N)n1)C(=O)O [CEFTAZIDIME] was tested, and the MIC (Escherichia coli [1]) was 0.5 µg/mL, the MBC (Escherichia coli [2]) was 0.25 µg/mL and the MBC (Klebsiella pneumoniae [4]) was > 64 µg/mL. The MBC (Klebsiella pneumoniae [5]) was 2 µg/mL, the MBC (Pseudomonas aeruginosa [6]) was 4 µg/mL and the MBC (Pseudomonas aeruginosa [7]) was > 16 µg/mL. It also gave an MIC (Klebsiella pneumoniae [8]) of 2 µg/mL, an MIC (Klebsiella pneumoniae [10]) of 2 µg/mL and an MBC (Enterobacter cloacae [11]) of 1 µg/mL. For the same compound, the MIC (Enterobacter cloacae [12]) was 1 µg/mL, the MBC (Escherichia coli [13]) was 0.25 µg/mL and the MBC (Acinetobacter baumannii [14]) was > 64 µg/mL. For the same compound, the MIC (Escherichia coli [15]) was 0.5 µg/mL, the MIC (Klebsiella pneumoniae [16]) was 2 µg/mL and the MBC (Enterobacter cloacae [17]) was > 2 µg/mL. The MIC (Klebsiella pneumoniae [18]) was 4 µg/mL, the MIC (Acinetobacter baumannii [19]) was > 64 µg/mL and the MIC (Acinetobacter baumannii [20]) was > 64 µg/mL. The MIC (Escherichia coli [21]) was 0.06 µg/mL (≈ 0.11 µM), the MIC (Escherichia coli [22]) was 16 µg/mL (≈ 29.3 µM) and the MIC (Acinetobacter baumannii [23]) was 8 µg/mL. The MIC (Enterococcus faecalis [24]) was > 64 µg/mL, the MIC (Klebsiella pneumoniae [25]) was 2 µg/mL and the MBC (Escherichia coli [26]) was > 64 µg/mL. The MIC (Pseudomonas aeruginosa [27]) was 32 µg/mL, the MIC (Acinetobacter baumannii [28]) was 8 µg/mL and the MBC (Escherichia coli [29]) was 1 µg/mL. For the same compound, the MIC (Klebsiella pneumoniae [30]) was 4 µg/mL (≈ 7.32 µM), the MIC (Escherichia coli [31]) was 0.5 µg/mL and the MIC (Klebsiella pneumoniae [32]) was 4 µg/mL. For the same compound, the MIC (Klebsiella aerogenes [34]) was 4 µg/mL, the MIC (Klebsiella aerogenes [35]) was 1 µg/mL and the MIC (Escherichia coli [36]) was 0.5 µg/mL. The MBC (Acinetobacter baumannii [38]) was 8 µg/mL, the MIC (Escherichia coli [40]) was 1 µg/mL and the MBC (Pseudomonas aeruginosa [41]) was 4 µg/mL. For the same compound, the MBC (Escherichia coli [42]) was 4 µg/mL (≈ 7.32 µM), the MBC (Acinetobacter baumannii [43]) was 16 µg/mL and the MBC (Klebsiella aerogenes [44]) was 0.25 µg/mL. The MIC (Klebsiella pneumoniae [45]) was 4 µg/mL, the MIC (Klebsiella pneumoniae [46]) was > 64 µg/mL and the MIC (Klebsiella pneumoniae [47]) was 1 µg/mL. For the same compound, the MIC (Enterococcus faecalis [48]) was > 64 µg/mL.
For C[C@@H](O)[C@H]1C(=O)N2C(C(=O)O)=C(S[C@@H]3CN[C@H](C(=O)N(C)C)C3)[C@H](C)[C@H]12 [MEROPENEM], the MIC (Pseudomonas aeruginosa [3]) was 2 µg/mL (≈ 5.22 µM), the MIC (Escherichia coli [9]) was < 0.03 µg/mL and the MIC (Klebsiella aerogenes [33]) was < 0.03 µg/mL. The MIC (Enterobacter cloacae [37]) was < 0.03 µg/mL and the MIC (Pseudomonas aeruginosa [39]) was 2 µg/mL (≈ 5.22 µM).
